Active and inactive are the calls of the source.
Assays:
[1] = NIH-3T3 fibroblast cytotoxicity, dose response, cytotoxicity control, cell-based, fluorescence, Alamar Blue, secondary assay (AID 2327); assay type: functional;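 also: NIH-3T3 mouse fibroblasts cultured with fluconazole at 8 µg/mL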
Cysteine protease ATG4B = Cysteine protease ATG4B (Homo sapiens, UniProt Q9Y4P1); assay type: functional;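 also: Fluorescence-based dose-response confirmation assay measuring inhibition of ATG4B activity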
[2] = fluconazole-exposed Candida albicans growth modulators – fluorescence, retest, confirmation (AID 2467); assay type: functional, cell-based
Phospholipase A2 = Phospholipase A2 (Homo sapiens, UniProt P04054); assay type: functional;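 also: confirmatory dose-response counterscreen on phospholipase A2, testing hits that came from an ultra-high-throughput screen for ATG4B inhibitors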
Phospholipase A2, sequence (P04054 whole entry): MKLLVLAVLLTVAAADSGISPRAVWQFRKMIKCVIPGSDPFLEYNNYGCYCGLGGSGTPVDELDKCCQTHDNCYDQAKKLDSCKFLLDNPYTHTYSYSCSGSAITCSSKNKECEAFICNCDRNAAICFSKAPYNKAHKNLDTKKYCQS

[3] = biological target: DNA dC->dU-editing enzyme APOBEC-3A (Homo sapiens, UniProt P31941); assay: A3A deaminase inhibition for selectivity – biochemical, dose response (AID 504722); assay type: functional
DNA dC->dU-editing enzyme APOBEC-3A, sequence (P31941 whole entry): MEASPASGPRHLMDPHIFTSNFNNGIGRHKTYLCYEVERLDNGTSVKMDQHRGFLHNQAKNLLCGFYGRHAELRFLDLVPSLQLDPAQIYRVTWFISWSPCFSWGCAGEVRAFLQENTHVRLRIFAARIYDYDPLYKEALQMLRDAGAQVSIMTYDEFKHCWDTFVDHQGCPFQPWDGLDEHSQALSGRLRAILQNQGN

[4] = biological target: DNA dC->dU-editing enzyme APOBEC-3G (Homo sapiens, UniProt Q9HC16); assay: Dose Response confirmation of small molecule APOBEC3G DNA Deaminase Inhibitors via a fluorescence-based single-stranded DNA deaminase assay. [Related pubchem assays (depositor defined):AID493012, AID493028]; assay type: functional
DNA dC->dU-editing enzyme APOBEC-3G, sequence (Q9HC16 whole entry): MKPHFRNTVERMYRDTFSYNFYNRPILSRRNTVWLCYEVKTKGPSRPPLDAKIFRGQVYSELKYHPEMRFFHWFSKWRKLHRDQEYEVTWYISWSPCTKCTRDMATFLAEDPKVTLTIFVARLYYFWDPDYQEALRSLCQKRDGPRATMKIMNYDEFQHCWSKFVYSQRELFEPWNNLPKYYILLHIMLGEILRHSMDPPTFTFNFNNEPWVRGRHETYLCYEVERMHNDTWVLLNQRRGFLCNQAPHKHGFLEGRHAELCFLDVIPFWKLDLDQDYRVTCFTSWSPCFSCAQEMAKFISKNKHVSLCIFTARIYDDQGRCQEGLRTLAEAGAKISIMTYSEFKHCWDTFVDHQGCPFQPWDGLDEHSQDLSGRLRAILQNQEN

[5] = biological target: Glucose-6-phosphate 1-dehydrogenase (Homo sapiens, UniProt P11413); assay: inhibition of Homo sapiens G6PD, dose series – biochemical, fluorescence, selectivity assay for P. falciparum G6PD inhibitor project, dose response (AID 504792); assay type: functional
[6] = biological target: Peroxisome proliferator-activated receptor gamma/Nuclear receptor coactivator 3 (Homo sapiens, UniProt P37231); assay: TR-FRET dose response biochemical High Throughput Screening assay for agonists of the steroid receptor coactivator 3 (SRC-3) recruitment by the peroxisome proliferator-activated receptor gamma (PPAR gamma): non-selective agonists. [Related pubchem assays: 1301 (Confirmation screen.), 1048 (Primary screen.)]; assay type: functional
[7] = biological target: Peroxisome proliferator-activated receptor gamma/Nuclear receptor coactivator 2 (Homo sapiens, UniProt P37231); assay: (§1) TR-FRET dose response biochemical High Throughput Screening assay for agonists of the steroid receptor coactivator 2 (SRC-2) recruitment by the peroxisome proliferator-activated receptor gamma (PPAR gamma): non-selective agonists. [Related pubchem assays: 1297, 1032 ]; assay type: functional
Peroxisome proliferator-activated receptor gamma/Nuclear receptor coactivator 2, sequence (P37231 whole entry): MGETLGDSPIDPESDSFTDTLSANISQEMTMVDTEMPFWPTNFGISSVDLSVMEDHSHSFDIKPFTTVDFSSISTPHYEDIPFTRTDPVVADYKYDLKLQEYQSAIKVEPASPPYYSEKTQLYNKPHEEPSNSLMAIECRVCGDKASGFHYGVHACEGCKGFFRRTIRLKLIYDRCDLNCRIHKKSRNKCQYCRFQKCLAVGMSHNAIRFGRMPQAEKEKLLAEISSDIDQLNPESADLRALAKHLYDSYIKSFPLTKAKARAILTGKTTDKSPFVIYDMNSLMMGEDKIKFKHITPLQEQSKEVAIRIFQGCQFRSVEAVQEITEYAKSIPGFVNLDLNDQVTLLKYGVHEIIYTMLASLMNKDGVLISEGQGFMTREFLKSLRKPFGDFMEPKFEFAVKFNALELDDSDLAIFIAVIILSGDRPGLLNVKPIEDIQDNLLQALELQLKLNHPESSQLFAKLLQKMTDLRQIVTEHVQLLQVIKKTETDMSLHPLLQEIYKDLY
Peroxisome proliferator-activated receptor gamma/Nuclear receptor coactivator 2, sequence (Q15596 whole entry, further chain): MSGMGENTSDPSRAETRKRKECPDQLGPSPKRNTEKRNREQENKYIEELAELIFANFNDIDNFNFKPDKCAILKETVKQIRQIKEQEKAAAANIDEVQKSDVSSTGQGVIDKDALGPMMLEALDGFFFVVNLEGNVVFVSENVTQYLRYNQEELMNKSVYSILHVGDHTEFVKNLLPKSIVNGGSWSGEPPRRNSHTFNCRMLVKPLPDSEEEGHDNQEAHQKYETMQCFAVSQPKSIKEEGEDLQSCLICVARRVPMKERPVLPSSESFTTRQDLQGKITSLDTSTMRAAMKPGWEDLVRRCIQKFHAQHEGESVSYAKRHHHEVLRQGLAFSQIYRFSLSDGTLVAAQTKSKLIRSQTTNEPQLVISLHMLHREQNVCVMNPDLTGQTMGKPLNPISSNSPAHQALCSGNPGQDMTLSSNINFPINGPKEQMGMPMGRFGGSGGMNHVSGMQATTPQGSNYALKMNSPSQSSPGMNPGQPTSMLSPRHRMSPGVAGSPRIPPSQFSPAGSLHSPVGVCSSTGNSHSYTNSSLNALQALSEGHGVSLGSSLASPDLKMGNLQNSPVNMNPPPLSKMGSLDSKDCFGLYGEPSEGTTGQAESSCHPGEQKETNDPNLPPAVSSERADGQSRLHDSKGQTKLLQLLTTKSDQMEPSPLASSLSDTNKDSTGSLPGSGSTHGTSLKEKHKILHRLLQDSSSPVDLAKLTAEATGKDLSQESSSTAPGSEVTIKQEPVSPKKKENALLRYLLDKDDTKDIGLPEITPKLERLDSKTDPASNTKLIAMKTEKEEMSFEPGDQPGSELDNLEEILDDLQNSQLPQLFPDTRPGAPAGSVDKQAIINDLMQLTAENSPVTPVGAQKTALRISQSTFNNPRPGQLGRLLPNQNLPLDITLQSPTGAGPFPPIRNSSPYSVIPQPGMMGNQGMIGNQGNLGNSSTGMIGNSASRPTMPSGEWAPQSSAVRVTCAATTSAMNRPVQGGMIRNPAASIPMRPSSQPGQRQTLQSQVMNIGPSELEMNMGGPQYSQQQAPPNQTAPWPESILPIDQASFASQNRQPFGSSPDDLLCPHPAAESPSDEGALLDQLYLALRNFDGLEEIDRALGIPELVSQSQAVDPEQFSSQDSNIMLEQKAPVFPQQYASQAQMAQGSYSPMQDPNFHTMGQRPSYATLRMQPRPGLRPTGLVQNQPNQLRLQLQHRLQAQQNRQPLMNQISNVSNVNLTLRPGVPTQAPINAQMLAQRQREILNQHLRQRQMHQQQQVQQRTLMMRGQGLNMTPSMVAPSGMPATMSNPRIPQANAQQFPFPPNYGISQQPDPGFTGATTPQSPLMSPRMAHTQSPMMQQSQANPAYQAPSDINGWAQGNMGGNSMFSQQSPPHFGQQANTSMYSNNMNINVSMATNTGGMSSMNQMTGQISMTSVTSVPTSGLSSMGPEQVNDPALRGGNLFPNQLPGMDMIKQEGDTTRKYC

[8] = biological target: Peroxisome proliferator-activated receptor gamma/Nuclear receptor coactivator 1 (Homo sapiens, UniProt P37231); assay: as §1, with “1 (SRC-1)” for “2 (SRC-2)”, “assays (depositor defined):AID1300, AID1808, AID504735, AID631]” for “assays: 1297, 1032 ]”; assay type: protein assay
Peroxisome proliferator-activated receptor gamma/Nuclear receptor coactivator 1, sequence (P37231 whole entry): as the sequence (P37231 whole entry) above
Peroxisome proliferator-activated receptor gamma/Nuclear receptor coactivator 1, sequence (Q15788 whole entry, further chain): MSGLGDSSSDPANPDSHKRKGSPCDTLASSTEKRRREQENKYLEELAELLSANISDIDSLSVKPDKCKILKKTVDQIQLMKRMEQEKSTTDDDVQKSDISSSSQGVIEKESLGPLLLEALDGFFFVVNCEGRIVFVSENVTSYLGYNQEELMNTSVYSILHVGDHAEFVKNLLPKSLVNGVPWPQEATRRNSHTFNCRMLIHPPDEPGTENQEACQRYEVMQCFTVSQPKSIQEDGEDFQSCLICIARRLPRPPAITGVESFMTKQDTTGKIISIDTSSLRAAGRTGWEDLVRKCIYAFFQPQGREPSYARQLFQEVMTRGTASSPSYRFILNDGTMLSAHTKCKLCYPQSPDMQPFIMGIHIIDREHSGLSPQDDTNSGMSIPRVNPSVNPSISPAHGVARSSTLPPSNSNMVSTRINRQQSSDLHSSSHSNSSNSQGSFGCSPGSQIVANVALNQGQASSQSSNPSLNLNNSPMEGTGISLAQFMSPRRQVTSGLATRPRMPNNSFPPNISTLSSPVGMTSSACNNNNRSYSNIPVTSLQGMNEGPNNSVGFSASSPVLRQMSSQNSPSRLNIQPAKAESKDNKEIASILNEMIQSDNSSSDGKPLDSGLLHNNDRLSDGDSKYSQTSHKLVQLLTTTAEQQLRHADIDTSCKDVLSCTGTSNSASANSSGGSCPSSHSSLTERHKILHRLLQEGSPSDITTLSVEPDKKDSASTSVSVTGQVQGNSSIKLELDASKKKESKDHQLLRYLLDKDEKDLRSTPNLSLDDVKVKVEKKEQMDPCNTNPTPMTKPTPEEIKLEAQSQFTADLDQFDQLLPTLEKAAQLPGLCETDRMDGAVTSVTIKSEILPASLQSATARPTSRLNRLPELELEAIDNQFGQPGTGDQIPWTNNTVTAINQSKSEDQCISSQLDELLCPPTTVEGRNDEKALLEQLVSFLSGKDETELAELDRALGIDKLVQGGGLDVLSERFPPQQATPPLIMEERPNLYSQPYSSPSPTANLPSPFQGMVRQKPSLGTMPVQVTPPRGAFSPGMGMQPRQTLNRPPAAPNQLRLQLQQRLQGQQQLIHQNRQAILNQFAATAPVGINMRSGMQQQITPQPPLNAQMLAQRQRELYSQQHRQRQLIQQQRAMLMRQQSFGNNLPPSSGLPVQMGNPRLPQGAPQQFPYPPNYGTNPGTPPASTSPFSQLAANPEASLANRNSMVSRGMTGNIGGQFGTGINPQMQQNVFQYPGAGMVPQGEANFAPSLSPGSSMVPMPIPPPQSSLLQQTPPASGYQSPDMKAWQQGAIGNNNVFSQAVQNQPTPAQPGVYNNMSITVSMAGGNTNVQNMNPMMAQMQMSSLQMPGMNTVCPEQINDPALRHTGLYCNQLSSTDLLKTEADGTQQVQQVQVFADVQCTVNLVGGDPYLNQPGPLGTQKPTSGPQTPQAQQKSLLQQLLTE

[9] = Trypanosoma cruzi growth suppression in host cells – NIH3T3 host cells, beta-gal luminescence, confirmation (AID 2044); assay type: functional, cell-based;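 also: intracellular parasites grown in NIH/3T3 mouse fibroblasts as host cells; luminescent beta-galactosidase reporter signal from transgenic T. cruzi replicating inside host cells; inhibitors lower the luminescence signal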
[10] = NIH3T3 cell viability loss – ATP luminescence, mouse fibroblasts, counter-screen, dose response (AID 2010); assay type: functional, cell-based;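 also: cells exposed to compound for about 90 hours before reading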
[11] = tested on: Streptococcus sp. 'group A'; assay: Streptococcus pyogenes SK(-)GAS viability under kanamycin – luminescence, BacTiterGlo, confirmation, counter-screen for streptokinase expression inhibitor project, dose response (AID 1900); assay type: functional, organism-based
Streptococcus = assay: GAS UMAA2166 growth inhibition – luminescence, BacTiterGlo, counter-screen for streptokinase expression inhibitor project, dose response (AID 1915); assay type: functional, organism-based;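 also: potency for reduction of bacterial viability or growth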
Streptokinase A = biological target: T1, Streptokinase A (Streptococcus pyogenes serotype M1, UniProt P10520); assay: viability-normalized secreted streptokinase activity reduction – plasminogen activation absorbance, OD405, dose response (AID 1914); assay type: functional, Streptococcus pyogenes M1 GAS;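 also: secreted streptokinase activity via plasminogen activation per viability signal from cell pellet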
T1 sequence (P10520 whole entry): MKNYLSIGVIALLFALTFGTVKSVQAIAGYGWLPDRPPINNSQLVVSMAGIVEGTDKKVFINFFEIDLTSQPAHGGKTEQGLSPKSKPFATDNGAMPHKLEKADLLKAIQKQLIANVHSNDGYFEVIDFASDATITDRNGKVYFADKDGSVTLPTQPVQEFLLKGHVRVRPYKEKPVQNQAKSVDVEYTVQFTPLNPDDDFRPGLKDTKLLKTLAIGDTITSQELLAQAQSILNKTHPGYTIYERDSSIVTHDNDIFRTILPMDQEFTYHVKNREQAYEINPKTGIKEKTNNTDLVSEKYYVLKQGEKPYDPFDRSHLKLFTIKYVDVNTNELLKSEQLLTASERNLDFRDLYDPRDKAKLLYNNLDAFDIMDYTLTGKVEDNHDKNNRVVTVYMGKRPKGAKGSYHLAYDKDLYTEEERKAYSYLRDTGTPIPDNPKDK

[12] = biological target: DNA damage-inducible transcript 3 protein (Mus musculus, UniProt P35639); assay type: functional, Cricetulus griseus
[13] = blockers of HIV-1 ZM109 envelope-driven cell-cell fusion – HeLa effector, CEM target cells, luciferase, cherry-pick, dose response (AID 652058); assay type: functional, cell-based;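 also: luciferase signal from HIV-1 Env mediated cell-cell fusion of effector and target cells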
[14] = biological target: C-C chemokine receptor type 6 (Homo sapiens, UniProt P51684); assay: antagonism of CCR6 beta-arrestin recruitment – cell-based, luminescent beta-arrestin readout, dose response (AID 504728); assay type: functional
Beta-galactosidase = Beta-galactosidase (Escherichia coli, UniProt Q8VNN2); assay: detection-enzyme interference by beta-gal modulators – biochemical, E. coli enzyme, set 3, artefact control for CCR6 antagonist project, dose response (AID 504712); assay type: functional
Insulin-degrading enzyme = biological target: T2, Insulin-degrading enzyme (Homo sapiens, UniProt P14735); assay: Dose Response: Fluorescence polarization-based cell-based high throughput dose response assay for inhibitors of insulin-degrading enzyme (IDE). [Related pubchem assays: 434962 (Primary screen (IDE inhibitors in singlicate)), 449730 (Counterscreen (Cytotoxicity in triplicate)), 435028 (Confirmation (IDE inhibitors in triplicate)), 434984 (Summary …; assay type: functional
T2 sequence (P14735 whole entry): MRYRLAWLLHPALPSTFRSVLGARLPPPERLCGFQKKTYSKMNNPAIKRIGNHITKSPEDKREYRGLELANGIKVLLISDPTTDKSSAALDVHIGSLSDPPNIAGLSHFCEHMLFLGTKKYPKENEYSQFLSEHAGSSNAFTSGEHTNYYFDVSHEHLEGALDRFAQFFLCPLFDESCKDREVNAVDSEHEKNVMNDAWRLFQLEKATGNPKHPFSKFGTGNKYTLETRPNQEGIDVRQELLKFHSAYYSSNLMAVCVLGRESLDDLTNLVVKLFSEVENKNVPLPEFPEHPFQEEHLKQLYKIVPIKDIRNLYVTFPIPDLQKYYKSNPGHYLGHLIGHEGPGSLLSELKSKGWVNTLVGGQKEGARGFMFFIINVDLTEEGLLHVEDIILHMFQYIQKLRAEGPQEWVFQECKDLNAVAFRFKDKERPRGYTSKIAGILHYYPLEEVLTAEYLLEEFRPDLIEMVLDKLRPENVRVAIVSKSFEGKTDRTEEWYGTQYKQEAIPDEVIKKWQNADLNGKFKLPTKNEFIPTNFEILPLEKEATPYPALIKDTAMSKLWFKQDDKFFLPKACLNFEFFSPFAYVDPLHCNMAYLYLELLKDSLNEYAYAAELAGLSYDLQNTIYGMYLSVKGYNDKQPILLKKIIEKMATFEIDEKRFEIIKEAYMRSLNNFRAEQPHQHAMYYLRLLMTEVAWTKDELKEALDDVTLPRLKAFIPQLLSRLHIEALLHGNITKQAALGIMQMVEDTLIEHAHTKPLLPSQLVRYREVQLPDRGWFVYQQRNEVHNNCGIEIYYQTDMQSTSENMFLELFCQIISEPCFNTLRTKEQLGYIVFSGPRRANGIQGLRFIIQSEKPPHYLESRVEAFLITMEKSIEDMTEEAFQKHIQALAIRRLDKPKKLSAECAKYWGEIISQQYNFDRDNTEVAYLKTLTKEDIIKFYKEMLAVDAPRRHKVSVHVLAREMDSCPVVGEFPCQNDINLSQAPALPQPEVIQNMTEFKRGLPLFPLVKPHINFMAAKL

[15] = viability loss of HPDE-C7K cells – cell-based, fluorescence, HTS, primary screen (AID 431); assay type: functional; conditions: Homo sapiens
[16] = blockers of HIV-1 envelope-mediated cell-cell fusion – cherry-pick, dose response (AID 652057); assay type: functional, cell-based
INS1 = assay: INS-1E survival protection against cytokine death – cell-based, luminescence, retest, dose response (AID 449756); assay type: functional; conditions: Rattus norvegicus;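 also: cell death triggered by IL-1 beta plus TNF-alpha plus IFN-gamma mixture; protective hits raise ATP signal compared with cytokine alone wells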
[17] = viability loss in CEM21 cells – cell-based, CellTiter-Glo luminescence, cherry-picked, cytotoxicity control for viral fusion inhibitor project, dose response (AID 652042); assay type: functional;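 also: potency for signal decrease meaning cytotoxicity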
[18] = Counterscreen for IDE inhibitors: Luminescence-based cell-based high throughput dose response assay to identify compounds that are cytotoxic to HEK cells. [Related pubchem assays: 434962 (Primary screen (IDE inhibitors in singlicate)), 449730 (Counterscreen (Cytotoxicity in triplicate)), 435028 (Confirmation (IDE inhibitors in triplicate)) …; assay type: functional; conditions: HEK293
[19] = HPDE-C7 pancreatic duct cell viability loss – fluorescence, HTS (AID 430); assay type: functional, cell-based; conditions: Homo sapiens
[20] = HIV-1 AD8 envelope cell-cell fusion blockers – cherry-pick, dose response (AID 652062); assay type: functional, cell-based;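 also: luciferase signal from cell-cell fusion driven by HIV-1 clade B AD8 Env; potency is for inhibitors of fusion seen as a drop in luminescence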
[21] = microbe, parasite or virus in culture; assay type: functional; conditions: Mycobacterium tuberculosis

Cysteine protease ATG4B, sequence (Q9Y4P1 whole entry): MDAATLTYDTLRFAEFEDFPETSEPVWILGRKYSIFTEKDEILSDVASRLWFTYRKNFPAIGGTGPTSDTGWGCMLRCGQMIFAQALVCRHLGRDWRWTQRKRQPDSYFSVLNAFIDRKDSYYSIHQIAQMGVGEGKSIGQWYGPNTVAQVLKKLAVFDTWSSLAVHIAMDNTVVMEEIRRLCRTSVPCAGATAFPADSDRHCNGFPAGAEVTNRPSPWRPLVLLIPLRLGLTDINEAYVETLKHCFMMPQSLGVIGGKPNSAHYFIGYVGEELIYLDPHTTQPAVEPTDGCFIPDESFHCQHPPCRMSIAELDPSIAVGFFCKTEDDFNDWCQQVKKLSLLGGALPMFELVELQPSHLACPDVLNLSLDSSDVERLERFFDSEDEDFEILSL

In the case of `CCOC(=O)c1c(-c2ccccc2)oc2cc(Br)c(O)c(C=O)c12`, the EC50 [1] is reported as 4.74 µM (inconclusive), the IC50 (Cysteine protease ATG4B) is reported as 9.27 µM (active) and the EC50 [2] is reported as 2.69 µM (active). For the same molecule, the IC50 (Phospholipase A2) was 3.36 µM (active).

With `C=CCn1c(OCc2ccccc2)n[nH]c1=S` the IC50 [3] was > 100 µM (inactive) and the IC50 [4] was 7.3 µM (active).

With `COc1ccccc1NS(=O)(=O)c1cc(NC(=O)c2ccc(Cl)nc2)ccc1N1CCCC1` the IC50 [3] was > 100 µM (inactive), the IC50 [4] was 14.3 µM (active) and the IC50 [5] was > 80 µM (inactive).

For `Cn1c(=O)cc(SCC(=O)N2CCN(c3ccccc3)CC2)c2ccccc21`, the EC50 [6] was > 79.4 µM (not active), the EC50 [7] was 185 µM (not active) and the EC50 [8] was > 79.4 µM (inactive).

For `Cn1c(=O)cc(SCC(=O)N2CCN(c3ccccn3)CC2)c2ccccc21`, the EC50 [6] was > 79.4 µM (not active), the EC50 [7] was > 79.4 µM (not active) and the EC50 [8] was > 79.4 µM (inactive).

With `COc1ccc(-c2nnc(CSc3nc4ccccc4c(=O)n3CC(C)C)o2)cc1OC` the IC50 (Cysteine protease ATG4B) was 6.22 µM (active) and the IC50 (Phospholipase A2) was 1.19 µM (active).

With `O=C(Nc1ccccc1-c1nc2ccccc2[nH]1)c1sc2ccccc2c1Cl` the EC50 [9] was 2.1 µM (active), the EC50 [10] was > 60 µM (inconclusive) and the EC50 [11] was 21.3 µM (active). For the same molecule, the EC50 (Streptococcus) was > 150 µM (not active), the EC50 (Streptokinase A) was > 150 µM (not active) and the “Absolute IC50 (CHOP)” value [12] was 10 µM.

In the case of `CCCn1c(Nc2nc3ccccc3n2C)nc2ccccc21`, the EC50 [1] is reported as > 160 µM (inconclusive), the AC50 [13] is reported as 8.59 µM (active) and the IC50 [14] is reported as > 66.6 µM (inactive). For the same molecule, the IC50 (Beta-galactosidase) was > 66.6 µM (inactive), the EC50 [2] was 1.33 µM (active) and the IC50 (Insulin-degrading enzyme) was > 55.9 µM (not active). The EC50 [15] was 7.01 µM (active), the AC50 [16] was 10.1 µM (active) and the AC50 (INS1) was 7.73 µM (active). For the same molecule, the AC50 [17] was 8.31 µM (active), the IC50 [18] was 14.4 µM (not active) and the EC50 [19] was 6.72 µM (active). The AC50 [20] was 10.4 µM (active) and the CC50 [21] was 13.4 µM (active).
